# Legend:
# Format in all cases: cell-based
# HIV-1 IN mutant P142H = test: single-round infectivity assay, P142H IN mutant
# Method: (§1) The EC50 values were determined using a vector that carries the IN mutant in a single round infection assay. […] Error bars represent the standard deviations of independent experiments, n = 4, performed in triplicate.
# Single round infectivity measurements were determined as done previously.[38]
# (§2) The vector pNLNgoMIVR-ΔENV.LUC has been described previously.[26] To produce the new IN mutants used in this study, the IN open reading frame was removed from pNLNgoMIVR-ΔENV.LUC by digestion with KpnI and SalI, and the resulting fragment was inserted between the KpnI and SalI sites of pBluescript KS+. Using that construct as the wild-type template, we prepared the following HIV-1 IN mutants using the QuikChange II XL site directed mutagenesis kit (Agilent Technologies, Santa Clara, CA) protocol: N117A, N117H, P142A, P142H, P142S, Y143C, Y143H, S230R, R231G, and R231K. The following sense oligonucleotides were used with matching cognate antisense oligonucleotides (not shown) (Integrated DNA Technologies, Coralville, IA) in the mutagenesis: N117A, 5′-[…]-3′; N117H, 5′-[…]-3′; P142A, 5′-[…]-3′; P142H, 5′-[…]-3′; P142S, 5′-[…]-3′; Y143C, 5′- […]-3′; Y143H, 5′-[…]-3′; S230R, 5′- […]-3′; R231G, 5′-[…]-3′; R231K, 5′-[…]-3′.
# HIV-1 IN mutant R231K = test: single-round infectivity assay, R231K IN mutant
# Method: as §1, with “Figure 5 Antiviral potencies of the new compounds against IN with mutations in the […]. The” for “The”
# (§3) WT and mutant HIV-1 viral vectors were used in single-round infectivity assays to determine the antiviral potencies (EC50 values) of the compounds and the effects of the mutants on the EC50 values as previously described.[30],[54] Single round infectivity measurements were determined as done previously.[38]
# as §2
# WT HIV-1 = test: single-round infectivity assay, WT HIV-1 IN vector; details: Human immunodeficiency virus 1, read-out: EC50 values WT, vector carrying WT HIV-1 IN, single round infection, n = 4; new compounds
# Method: (§4) Figure 2 Antiviral activities of the new compounds against RAL-resistant mutants. The EC50 values were determined using a vector that carries WT HIV-1 IN and the RAL-resistant mutants in a single round infection assay. […] Error bars represent the standard deviations of independent experiments, n = 4, performed in triplicate. The graph has a maximum value of 550 nM.
# as §3, §2
# HIV-1 IN mutant N117A = test: single-round infectivity assay, N117A IN mutant
# Method: as §1, §3, §2
# [1] = test system: HIV-1 IN double mutant G140S/Q148H; test: single-round infectivity assay, G140S/Q148H IN double mutant
# Method: as §4, §3, §2
# HIV-1 IN mutant P142A = test: single-round infectivity assay, P142A IN mutant
# Method: as §1, with “Figure 4 Mutations in the β5-α3 loop affect the antiviral potencies of the new compounds. The” for “The”
# as §3, §2
# HIV-1 IN mutant P142S = test: single-round infectivity assay, P142S IN mutant
# Method: as §1, with “Figure 4 Mutations in the β5-α3 loop affect the antiviral potencies of the new compounds. The” for “The”
# as §3, §2
# HIV-1 IN mutant N117H = test: single-round infectivity assay, N117H IN mutant
# Method: as §1, §3, §2
# HIV-1 IN mutant G118R = test: single-round infectivity assay, G118R IN mutant
# Method: as §1, §3, §2
# HIV-1 IN mutant S119R = test: single-round infectivity assay, S119R IN mutant
# Method: as §1, §3, §2
# HIV-1 IN mutant S230R = test: single-round infectivity assay, S230R IN mutant
# Method: as §1, with “Figure 5 Antiviral potencies of the new compounds against IN with mutations in the […]. The” for “The”
# as §3, §2
# HIV-1 IN mutant N155H = test: single-round infectivity assay, N155H IN mutant
# Method: as §4, §3, §2
# HIV-1 IN mutant Y143H = test: single-round infectivity assay, Y143H IN mutant
# Method: as §1, with “Figure 4 Mutations in the β5-α3 loop affect the antiviral potencies of the new compounds. The” for “The”
# as §3, §2
# HIV-1 IN mutant Y143R = test: single-round infectivity assay, Y143R IN mutant
# Method: as §4, §3, §2
# HIV-1 IN mutant R231G = test: single-round infectivity assay, R231G IN mutant
# Method: as §1, with “Figure 5 Antiviral potencies of the new compounds against IN with mutations in the […]. The” for “The”
# as §3, §2
# HIV-1 IN mutant Y143C = test: single-round infectivity assay, Y143C IN mutant
# Method: as §1, with “Figure 4 Mutations in the β5-α3 loop affect the antiviral potencies of the new compounds. The” for “The”
# as §3, §2
# [2] = fold change in EC50, IN mutant versus WT HIV-1
smiles,measurement,setting,value
"O=C(NCc1ccc(F)cc1F)c1c(O)c2c(CO)ccnc2n(O)c1=O [5j, N-(2,4-Difluorobenzyl)-1,4-dihydroxy-5-(hydroxymethyl)-2-oxo-1,2-dihydro-1,8-naphthyridine-3-carboxamide]",ratio of the EC50s (our compound relative to DTG) against P142H,HIV-1 IN mutant P142H; EC50 compound / EC50 DTG,1.3
same,EC50,"HIV-1 IN mutant P142H; Human immunodeficiency virus 1, read-out: EC50 values P142H",3.5 ± 0.1 nM
same,ratio of the EC50s (our compound relative to DTG) against R231K,HIV-1 IN mutant R231K; EC50 compound / EC50 DTG,1.4
same,EC50,"HIV-1 IN mutant R231K; Human immunodeficiency virus 1, read-out: EC50 values R231K, single round infection, n = 4",5.9 ± 0.2 nM
same,FC R231K,HIV-1 IN mutant R231K; [2],0.8
same,EC50,WT HIV-1,7.3 ± 0.6 nM
same,ratio of the EC50s (our compound relative to DTG) against N117A,HIV-1 IN mutant N117A; EC50 compound / EC50 DTG,26.8
same,EC50,"HIV-1 IN mutant N117A; Human immunodeficiency virus 1, read-out: EC50 values N117A",13.4 ± 1.5 nM
same,FC N117A,HIV-1 IN mutant N117A; [2],1.8
same,ratio of the EC50s (our compound relative to DTG) against G140S/Q148H,[1]; EC50 compound / EC50 DTG,2.5
same,EC50,"[1]; Human immunodeficiency virus 1, read-out: EC50 values G140S/Q148H",14.7 ± 1.1 nM
same,FC G140S/Q148H,[1]; [2],2.0
same,ratio of the EC50s (our compound relative to DTG) against P142A,HIV-1 IN mutant P142A; EC50 compound / EC50 DTG,1.9
same,EC50,"HIV-1 IN mutant P142A; Human immunodeficiency virus 1, read-out: EC50 values P142A",4.7 ± 0.1 nM
same,ratio of the EC50s (our compound relative to DTG) against P142S,HIV-1 IN mutant P142S; EC50 compound / EC50 DTG,1.6
same,EC50,"HIV-1 IN mutant P142S; Human immunodeficiency virus 1, read-out: EC50 values P142S",3.5 ± 0.5 nM
same,ratio of the EC50s (our compound relative to DTG) against N117H,HIV-1 IN mutant N117H; EC50 compound / EC50 DTG,1.4
same,EC50,"HIV-1 IN mutant N117H; Human immunodeficiency virus 1, read-out: EC50 values N117H",3.4 ± 0.4 nM
same,FC N117H,HIV-1 IN mutant N117H; [2],0.5
same,ratio of the EC50s (our compound relative to DTG) against G118R,HIV-1 IN mutant G118R; EC50 compound / EC50 DTG,2.3
same,EC50,"HIV-1 IN mutant G118R; Human immunodeficiency virus 1, read-out: EC50 values G118R",30 ± 5 nM
same,ratio of the EC50s (our compound relative to DTG) against S119R,HIV-1 IN mutant S119R; EC50 compound / EC50 DTG,3.0
same,EC50,"HIV-1 IN mutant S119R; Human immunodeficiency virus 1, read-out: EC50 values S119R",7 ± 0.2 nM
same,FC S119R,HIV-1 IN mutant S119R; [2],1.0
same,ratio of the EC50s (our compound relative to DTG) against S230R,HIV-1 IN mutant S230R; EC50 compound / EC50 DTG,1.7
same,EC50,"HIV-1 IN mutant S230R; Human immunodeficiency virus 1, read-out: EC50 values S230R",7.7 ± 1 nM
same,FC S230R,HIV-1 IN mutant S230R; [2],1.1
same,ratio of the EC50s (our compound relative to DTG) against N155H,HIV-1 IN mutant N155H; EC50 compound / EC50 DTG,4.1
same,EC50,"HIV-1 IN mutant N155H; Human immunodeficiency virus 1, read-out: EC50 values N155H",14.9 ± 3.6 nM
same,FC N155H,HIV-1 IN mutant N155H; [2],2.0
same,ratio of the EC50s (our compound relative to DTG) against Y143H,HIV-1 IN mutant Y143H; EC50 compound / EC50 DTG,1.2
same,EC50,"HIV-1 IN mutant Y143H; Human immunodeficiency virus 1, read-out: EC50 values Y143H, single round infection, n = 4",2.6 ± 0.2 nM
same,FC Y143H,HIV-1 IN mutant Y143H; [2],0.4
same,ratio of the EC50s (our compound relative to DTG) against Y143R,HIV-1 IN mutant Y143R; EC50 compound / EC50 DTG,0.6
same,EC50,"HIV-1 IN mutant Y143R; Human immunodeficiency virus 1, read-out: EC50 values Y143R",2.6 ± 0.4 nM
same,FC Y143R,HIV-1 IN mutant Y143R; [2],0.4
same,ratio of the EC50s (our compound relative to DTG) against R231G,HIV-1 IN mutant R231G; EC50 compound / EC50 DTG,1.8
same,EC50,"HIV-1 IN mutant R231G; Human immunodeficiency virus 1, read-out: EC50 values R231G",2.5 ± 0.6 nM
same,FC R231G,HIV-1 IN mutant R231G; [2],0.3
same,ratio of the EC50s (our compound relative to DTG) against Y143C,HIV-1 IN mutant Y143C; EC50 compound / EC50 DTG,1.7
same,EC50,"HIV-1 IN mutant Y143C; Human immunodeficiency virus 1, read-out: EC50 values Y143C, single round infection, n = 4",2.4 ± 0.1 nM
same,FC Y143C,HIV-1 IN mutant Y143C; [2],0.3

# From paper PMC8205226, “HIV-1 Integrase Inhibitors with Modifications That Affect Their Potencies against Drug Resistant Integrase Mutants” (ACS Infectious Diseases, 2021)
